Values quoted from earlier work, collected in US20190151293A1, “PHARMACEUTICAL COMPOSITION COMPRISING A NON-PURINE SELECTIVE INHIBITOR OF XANTHINE OXIDASE AND METHOD FOR THE PREPARATION THEREOF” (PHARMATHEN S.A., priority 2016, published 2019).
Where two headings read alike, the source gives them in different places.

Assays:
[1] = tested on: other enzymes involved in purine or pyrimidine metabolism; details: at therapeutic concentrations
xanthine oxidase (XO) = xanthine oxidase (XO) (Homo sapiens, UniProt P47989); details: oxidised and reduced forms of XO
xanthine oxidase (XO), sequence (P47989 whole entry): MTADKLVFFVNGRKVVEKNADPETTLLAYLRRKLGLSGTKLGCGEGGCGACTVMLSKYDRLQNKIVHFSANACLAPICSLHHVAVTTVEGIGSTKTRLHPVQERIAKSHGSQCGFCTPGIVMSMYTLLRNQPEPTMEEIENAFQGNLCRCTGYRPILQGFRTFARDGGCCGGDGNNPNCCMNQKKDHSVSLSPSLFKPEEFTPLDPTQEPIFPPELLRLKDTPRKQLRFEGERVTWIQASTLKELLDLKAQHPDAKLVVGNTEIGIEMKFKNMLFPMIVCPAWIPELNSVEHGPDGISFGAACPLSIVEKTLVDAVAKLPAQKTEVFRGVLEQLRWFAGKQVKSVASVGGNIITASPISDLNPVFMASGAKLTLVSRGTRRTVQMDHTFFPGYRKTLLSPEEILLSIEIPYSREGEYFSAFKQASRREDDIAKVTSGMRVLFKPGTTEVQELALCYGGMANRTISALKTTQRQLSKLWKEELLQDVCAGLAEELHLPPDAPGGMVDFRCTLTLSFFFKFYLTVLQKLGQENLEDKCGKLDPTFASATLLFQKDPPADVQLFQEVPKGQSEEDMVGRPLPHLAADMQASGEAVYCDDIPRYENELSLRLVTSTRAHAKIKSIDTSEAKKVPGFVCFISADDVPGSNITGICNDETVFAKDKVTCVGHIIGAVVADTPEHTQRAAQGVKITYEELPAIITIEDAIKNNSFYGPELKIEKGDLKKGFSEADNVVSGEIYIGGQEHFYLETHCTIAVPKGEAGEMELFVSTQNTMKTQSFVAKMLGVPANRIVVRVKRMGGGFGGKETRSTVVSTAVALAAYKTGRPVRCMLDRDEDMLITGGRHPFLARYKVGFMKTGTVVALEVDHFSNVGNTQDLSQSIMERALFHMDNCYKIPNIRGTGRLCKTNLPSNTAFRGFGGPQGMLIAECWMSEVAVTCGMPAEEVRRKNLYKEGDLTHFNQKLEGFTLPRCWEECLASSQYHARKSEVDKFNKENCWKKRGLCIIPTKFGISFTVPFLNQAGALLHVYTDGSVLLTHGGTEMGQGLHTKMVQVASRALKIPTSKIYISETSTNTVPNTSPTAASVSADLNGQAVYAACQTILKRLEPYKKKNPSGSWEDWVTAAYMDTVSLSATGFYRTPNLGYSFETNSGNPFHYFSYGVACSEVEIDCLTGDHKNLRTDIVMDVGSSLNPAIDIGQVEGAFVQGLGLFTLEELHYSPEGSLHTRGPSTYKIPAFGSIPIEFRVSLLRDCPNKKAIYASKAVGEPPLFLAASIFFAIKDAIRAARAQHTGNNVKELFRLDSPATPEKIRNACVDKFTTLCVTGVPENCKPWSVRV

SMILES: Cc1nc(-c2ccc(OCC(C)C)c(C#N)c2)sc1C(=O)O [Febuxostat, 2-(3-cyano-4-isobutoxyphenyl)-4-methyl-1,3-thiazole-5-carboxylic acid]
- Inhibition of other enzymes involved in purine or pyrimidine metabolism [1]: does not inhibit
- Solubility, dependence on pH (higher in alkalic media): pH dependent
- Solubility (in dimethylformamide): freely soluble
- Solubility (in dimethylsulfoxide): soluble
- Solubility (in ethanol): sparingly soluble
- Solubility (in water): practically insoluble
- Inhibition of XO (xanthine oxidase (XO)): inhibit both the oxidised and reduced forms of XO

SMILES: Cc1nc(-c2ccc(OCC(C)C)c(C#N)c2)sc1C(=O)O [Form C]
- Solubility of the crystal form, in words: good solubility
